In US10344060B2 (priority 2013, dated 2019):
Where “and” joins values, the source holds several entries; their conditions need not be identical. Equal values may be shown once. Read-outs that look alike come from different tables or passages of the source.

Tests used:
Test in all cases: cell-based
[1] = biological target: hNav1.5 (Homo sapiens, UniProt Q14524); conditions: read-out: IC50 (μM) Nav1.5
[2] = biological target: hNav1.7 (Homo sapiens, UniProt Q15858); conditions: for IC50: read-out: IC50 (μM) Nav1.7
[3] = biological target: hNav1.3 (Homo sapiens, UniProt Q9NY46); conditions: read-out: IC50 (μM) Nav1.3
[4] = biological target: hNav1.4 (Homo sapiens, UniProt P35499); format: cell-based; conditions: for IC50: read-out: IC50 (μM) Nav1.4; for Nav1.4/Nav1.7: ratio of IonWorks Quattro IC50 values

Sequence of hNav1.7 (Q15858 whole entry): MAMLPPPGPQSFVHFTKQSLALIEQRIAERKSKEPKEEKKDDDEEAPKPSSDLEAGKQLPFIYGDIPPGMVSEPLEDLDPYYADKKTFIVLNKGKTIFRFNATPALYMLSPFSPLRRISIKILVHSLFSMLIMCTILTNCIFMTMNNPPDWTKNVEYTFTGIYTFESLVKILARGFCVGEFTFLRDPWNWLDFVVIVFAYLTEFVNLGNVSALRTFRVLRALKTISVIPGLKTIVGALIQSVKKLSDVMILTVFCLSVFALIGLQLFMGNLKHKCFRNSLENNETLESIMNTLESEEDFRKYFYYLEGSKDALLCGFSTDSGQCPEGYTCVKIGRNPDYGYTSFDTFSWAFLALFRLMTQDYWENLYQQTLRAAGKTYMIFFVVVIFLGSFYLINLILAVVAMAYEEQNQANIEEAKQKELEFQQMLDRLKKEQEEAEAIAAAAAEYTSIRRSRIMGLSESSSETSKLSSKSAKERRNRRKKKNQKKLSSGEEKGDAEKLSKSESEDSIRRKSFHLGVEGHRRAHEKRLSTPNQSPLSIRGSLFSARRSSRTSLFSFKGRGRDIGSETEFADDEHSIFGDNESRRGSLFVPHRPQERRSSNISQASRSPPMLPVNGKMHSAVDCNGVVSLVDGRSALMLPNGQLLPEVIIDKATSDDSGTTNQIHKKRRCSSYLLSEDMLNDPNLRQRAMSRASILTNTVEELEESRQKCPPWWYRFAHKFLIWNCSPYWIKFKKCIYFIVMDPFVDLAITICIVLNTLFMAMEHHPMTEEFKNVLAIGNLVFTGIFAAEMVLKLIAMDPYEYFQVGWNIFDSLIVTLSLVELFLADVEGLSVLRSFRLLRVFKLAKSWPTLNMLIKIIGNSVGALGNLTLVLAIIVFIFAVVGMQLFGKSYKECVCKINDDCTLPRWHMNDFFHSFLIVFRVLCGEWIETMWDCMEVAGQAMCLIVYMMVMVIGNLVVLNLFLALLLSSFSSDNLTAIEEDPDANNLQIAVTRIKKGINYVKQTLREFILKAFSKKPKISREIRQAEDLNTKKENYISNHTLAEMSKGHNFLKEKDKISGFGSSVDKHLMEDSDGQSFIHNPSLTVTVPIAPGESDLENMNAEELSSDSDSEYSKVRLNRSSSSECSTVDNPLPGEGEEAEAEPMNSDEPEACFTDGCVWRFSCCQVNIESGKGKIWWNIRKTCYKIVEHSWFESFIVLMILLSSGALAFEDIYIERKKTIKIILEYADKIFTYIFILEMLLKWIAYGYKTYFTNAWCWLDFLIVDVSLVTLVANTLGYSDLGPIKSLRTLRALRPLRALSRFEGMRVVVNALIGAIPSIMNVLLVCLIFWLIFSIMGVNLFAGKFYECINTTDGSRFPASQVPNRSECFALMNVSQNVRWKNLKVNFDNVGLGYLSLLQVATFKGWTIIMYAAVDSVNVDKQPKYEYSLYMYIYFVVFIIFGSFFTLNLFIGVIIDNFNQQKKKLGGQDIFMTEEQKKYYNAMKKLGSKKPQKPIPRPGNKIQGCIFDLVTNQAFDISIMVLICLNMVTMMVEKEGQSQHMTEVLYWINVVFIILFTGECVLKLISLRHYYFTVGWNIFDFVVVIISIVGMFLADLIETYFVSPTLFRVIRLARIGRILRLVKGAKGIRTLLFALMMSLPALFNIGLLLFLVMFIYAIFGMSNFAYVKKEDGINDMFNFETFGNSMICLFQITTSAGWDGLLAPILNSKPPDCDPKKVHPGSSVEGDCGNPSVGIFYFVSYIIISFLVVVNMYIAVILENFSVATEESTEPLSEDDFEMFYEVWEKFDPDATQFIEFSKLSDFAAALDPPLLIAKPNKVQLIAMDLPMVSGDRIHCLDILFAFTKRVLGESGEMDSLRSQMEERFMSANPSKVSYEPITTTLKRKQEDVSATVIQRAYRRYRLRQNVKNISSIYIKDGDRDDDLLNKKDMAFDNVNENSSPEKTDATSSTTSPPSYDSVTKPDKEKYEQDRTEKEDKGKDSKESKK
Sequence of hNav1.3 (Q9NY46 whole entry): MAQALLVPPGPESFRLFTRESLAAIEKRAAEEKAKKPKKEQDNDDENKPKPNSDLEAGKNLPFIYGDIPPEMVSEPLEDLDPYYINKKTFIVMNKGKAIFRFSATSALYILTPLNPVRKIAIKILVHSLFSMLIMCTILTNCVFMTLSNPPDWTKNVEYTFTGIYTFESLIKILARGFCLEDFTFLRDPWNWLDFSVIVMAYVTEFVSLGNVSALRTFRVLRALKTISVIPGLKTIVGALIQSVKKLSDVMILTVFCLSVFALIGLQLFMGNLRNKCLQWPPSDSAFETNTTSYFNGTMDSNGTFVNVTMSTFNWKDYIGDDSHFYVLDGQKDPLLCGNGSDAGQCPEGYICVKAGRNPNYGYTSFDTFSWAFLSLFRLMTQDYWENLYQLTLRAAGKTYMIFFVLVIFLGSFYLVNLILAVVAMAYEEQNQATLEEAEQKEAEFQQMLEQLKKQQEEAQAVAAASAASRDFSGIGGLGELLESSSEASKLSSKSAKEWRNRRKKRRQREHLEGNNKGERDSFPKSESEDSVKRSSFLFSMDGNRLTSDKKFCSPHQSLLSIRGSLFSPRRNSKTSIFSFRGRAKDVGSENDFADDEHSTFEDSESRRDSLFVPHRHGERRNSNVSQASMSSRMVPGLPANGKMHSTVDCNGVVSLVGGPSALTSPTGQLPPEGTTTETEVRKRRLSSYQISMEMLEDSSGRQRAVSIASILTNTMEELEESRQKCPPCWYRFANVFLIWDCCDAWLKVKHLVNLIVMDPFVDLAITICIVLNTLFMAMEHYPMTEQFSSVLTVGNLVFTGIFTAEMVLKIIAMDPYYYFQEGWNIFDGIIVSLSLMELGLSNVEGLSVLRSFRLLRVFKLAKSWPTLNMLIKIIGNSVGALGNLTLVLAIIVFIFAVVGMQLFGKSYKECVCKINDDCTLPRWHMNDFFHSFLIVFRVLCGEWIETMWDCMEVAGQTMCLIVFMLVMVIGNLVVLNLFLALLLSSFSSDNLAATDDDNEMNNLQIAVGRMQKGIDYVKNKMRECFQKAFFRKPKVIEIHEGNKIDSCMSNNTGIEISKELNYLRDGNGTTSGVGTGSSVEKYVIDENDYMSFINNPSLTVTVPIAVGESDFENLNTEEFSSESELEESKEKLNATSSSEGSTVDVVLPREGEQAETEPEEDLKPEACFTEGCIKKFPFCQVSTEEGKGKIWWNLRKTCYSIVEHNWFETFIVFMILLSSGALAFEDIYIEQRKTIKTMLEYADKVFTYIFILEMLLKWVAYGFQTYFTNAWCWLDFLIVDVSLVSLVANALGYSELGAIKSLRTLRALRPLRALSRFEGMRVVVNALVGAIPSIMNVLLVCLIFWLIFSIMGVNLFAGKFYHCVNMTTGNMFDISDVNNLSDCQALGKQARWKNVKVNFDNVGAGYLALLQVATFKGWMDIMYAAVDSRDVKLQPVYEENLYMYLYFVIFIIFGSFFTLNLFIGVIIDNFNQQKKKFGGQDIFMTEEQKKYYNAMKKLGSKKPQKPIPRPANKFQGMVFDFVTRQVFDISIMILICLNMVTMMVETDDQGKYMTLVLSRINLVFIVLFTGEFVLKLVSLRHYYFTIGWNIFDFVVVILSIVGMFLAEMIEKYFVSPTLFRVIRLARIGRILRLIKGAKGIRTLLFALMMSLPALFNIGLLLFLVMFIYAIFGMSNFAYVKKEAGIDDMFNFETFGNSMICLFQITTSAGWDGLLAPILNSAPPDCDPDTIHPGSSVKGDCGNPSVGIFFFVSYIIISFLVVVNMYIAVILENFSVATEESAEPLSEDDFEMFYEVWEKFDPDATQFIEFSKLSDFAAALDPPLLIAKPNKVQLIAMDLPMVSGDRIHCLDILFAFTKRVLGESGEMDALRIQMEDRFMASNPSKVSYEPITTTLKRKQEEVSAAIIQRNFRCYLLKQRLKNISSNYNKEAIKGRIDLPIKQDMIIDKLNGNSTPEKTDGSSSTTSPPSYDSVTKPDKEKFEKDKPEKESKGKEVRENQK

Structure (SMILES): CC[C@H](C)[C@H](NC(=O)[C@H](CCCCN)NC(=O)[C@H](CCCNC(=N)N)NC(=O)[C@@H]1CSSC[C@@H]2NC(=O)[C@H](C)NC(=O)[C@H](CCCNC(=N)N)NC(=O)[C@H](CCCCN)NC(=O)[C@H](CO)NC(=O)[C@H](CC(=O)O)NC(=O)[C@@H]3CSSC[C@H](NC(=O)[C@H](CCCNC(=N)N)NC(=O)[C@H](CC(C)C)NC(=O)CNC(=O)[C@H](CCC(=O)O)NC(=O)[C@H](CSSC[C@H](NC(=O)[C@@H](N)Cc4ccc(O)cc4)C(=O)N[C@@H](CCC(N)=O)C(=O)N[C@@H](CCCCN)C(=O)N[C@@H](Cc4c[nH]c5ccccc45)C(=O)N[C@@H](CCSC)C(=O)N[C@@H](Cc4c[nH]c5ccccc45)C(=O)N[C@@H]([C@@H](C)O)C(=O)N3)NC2=O)C(=O)N[C@@H](CCCCN)C(=O)N[C@@H](CC(C)C)C(=O)N[C@@H](Cc2c[nH]c3ccccc23)C(=O)N1)C(=O)N[C@@H](C)C(N)=O [compound 24]
- IC50 ([1]; IonWorks Quattro, Table 6): > 5 µM
- IC50 [2]: 0.053 µM
- IC50 ([3]; IonWorks Quattro, Table 6): 0.45 µM
- IC50 ([4]; IonWorks Quattro, Table 6): 0.27 µM
- Nav1.4/Nav1.7 ([4]; Table 6): 5

Structure (SMILES): CC[C@H](NC(=O)[C@H](CCCCN)NC(=O)[C@H](CCCNC(=N)N)NC(=O)[C@@H]1CSSC[C@@H]2NC(=O)[C@H](C)NC(=O)[C@H](CCCNC(=N)N)NC(=O)[C@H](CCCCN)NC(=O)[C@H](CO)NC(=O)[C@H](CC(=O)O)NC(=O)[C@@H]3CSSC[C@H](NC(=O)[C@H](CCC(=O)O)NC(=O)[C@H](CC(C)C)NC(=O)CNC(=O)[C@H](CCC(=O)O)NC(=O)[C@H](CSSC[C@H](NC(=O)[C@@H](N)Cc4ccc(O)cc4)C(=O)N[C@@H](CCC(N)=O)C(=O)N[C@@H](CCCCN)C(=O)N[C@@H](Cc4c[nH]c5ccccc45)C(=O)N[C@@H](CCSC)C(=O)N[C@@H](Cc4c[nH]c5ccccc45)C(=O)N[C@@H]([C@@H](C)O)C(=O)N3)NC2=O)C(=O)N[C@@H](CCCCN)C(=O)N[C@@H](CC(C)C)C(=O)N[C@@H](Cc2c[nH]c3ccccc23)C(=O)N1)C(=O)N[C@H](C(N)=O)[C@@H](C)CC [compound 130]
- IC50 [1]: 8.2 µM and 11.1 µM
- Nav1.4/Nav1.7 ([2]; ratio of IonWorks Quattro IC50 values, Nav1.4 over Nav1.7): 29 and 24
- IC50 [2]: 0.17 µM and 0.21 µM
- IC50 [3]: > 5 µM
- IC50 [4]: > 5 µM

Structure (SMILES): CC[C@H](C)[C@H](NC(=O)[C@@H](NC(=O)[C@H](CCCCN)NC(=O)[C@H](CCCNC(=N)N)NC(=O)[C@@H]1CSSC[C@@H]2NC(=O)[C@H](C)NC(=O)[C@H](CCCNC(=N)N)NC(=O)[C@H](CCCCN)NC(=O)[C@H](CO)NC(=O)[C@H](CC(=O)O)NC(=O)[C@@H]3CSSC[C@H](NC(=O)[C@H](CCCNC(=N)N)NC(=O)[C@H](CC(C)C)NC(=O)CNC(=O)[C@H](CCCCN)NC(=O)[C@H](CSSC[C@H](NC(=O)[C@@H](N)Cc4ccc(O)cc4)C(=O)N[C@@H](CCC(N)=O)C(=O)N[C@@H](CCCCN)C(=O)N[C@@H](Cc4c[nH]c5ccccc45)C(=O)N[C@@H](CCSC)C(=O)N[C@@H](Cc4c[nH]c5ccccc45)C(=O)N[C@@H]([C@@H](C)O)C(=O)N3)NC2=O)C(=O)N[C@@H](CCCCN)C(=O)N[C@@H](CC(C)C)C(=O)N[C@@H](Cc2c[nH]c3ccccc23)C(=O)N1)[C@@H](C)CC)C(N)=O [compound 81]
- IC50 ([1]; IonWorks Quattro, Table 6): 0.89 µM
- IC50 [2]: 0.01 µM
- IC50 ([3]; IonWorks Quattro, Table 6): 0.03 µM
- IC50 ([4]; IonWorks Quattro, Table 6): 0.05 µM
- Nav1.4/Nav1.7 ([4]; Table 6): 5

Structure (SMILES): CC[C@H](C)[C@H](NC(=O)[C@@H](NC(=O)[C@H](CCCCN)NC(=O)[C@H](CCCNC(=N)N)NC(=O)[C@@H]1CSSC[C@@H]2NC(=O)[C@H](C)NC(=O)[C@H](CCCNC(=N)N)NC(=O)[C@H](CCCCN)NC(=O)[C@H](CO)NC(=O)[C@H](CC(=O)O)NC(=O)[C@@H]3CSSC[C@H](NC(=O)[C@H](CCCNC(=N)N)NC(=O)[C@H](CC(C)C)NC(=O)CNC(=O)[C@H](CCC(=O)O)NC(=O)[C@H](CSSC[C@H](NC(=O)[C@H](C)N)C(=O)N[C@@H](CCC(N)=O)C(=O)N[C@@H](CCCCN)C(=O)N[C@@H](Cc4c[nH]c5ccccc45)C(=O)N[C@@H](CCSC)C(=O)N[C@@H](Cc4c[nH]c5ccccc45)C(=O)N[C@@H]([C@@H](C)O)C(=O)N3)NC2=O)C(=O)N[C@@H](CCCCN)C(=O)N[C@@H](CC(C)C)C(=O)N[C@@H](Cc2c[nH]c3ccccc23)C(=O)N1)[C@@H](C)CC)C(N)=O [compound 3]
- IC50 ([1]; IonWorks Quattro, Table 6): 3.1 µM
- IC50 [2]: 0.004 µM
- IC50 ([3]; IonWorks Quattro, Table 6): 0.04 µM
- IC50 ([4]; IonWorks Quattro, Table 6): 0.07 µM
- Nav1.4/Nav1.7 ([4]; Table 6): 18

Structure (SMILES): CCCC[C@@H]1NC(=O)[C@H](Cc2c[nH]c3ccccc23)NC(=O)[C@H](CCCCN)NC(=O)[C@H](CCC(N)=O)NC(=O)[C@@H](NC(=O)[C@@H](N)Cc2ccc(O)cc2)CSSC[C@@H]2NC(=O)[C@@H]3CSSC[C@@H](C(=O)N[C@@H](CCCNC(=N)N)C(=O)N[C@@H](CCCCN)C(=O)N[C@H](C(=O)N[C@H](C(N)=O)[C@@H](C)CC)[C@@H](C)CC)NC(=O)[C@H](Cc4c[nH]c5ccccc45)NC(=O)[C@H](Cc4cn(CCCOCCOCCOCCOCCOCCOCCOCCOCCOCCOCCN)nn4)NC(=O)[C@H](CCCCN)NC(=O)[C@H](CSSC[C@H](NC(=O)[C@H]([C@@H](C)O)NC(=O)[C@H](Cc4c[nH]c5ccccc45)NC1=O)C(=O)N[C@@H](CC(=O)O)C(=O)N[C@@H](CO)C(=O)N[C@@H](CCCCN)C(=O)N[C@@H](CCCNC(=N)N)C(=O)N[C@@H](C)C(=O)N3)NC(=O)[C@H](CCCNC(=N)N)NC(=O)[C@H](CC(C)C)NC(=O)CNC(=O)[C@H](CCC(=O)O)NC2=O [compound 265]
- IC50 ([1]; IonWorks Quattro, Table 9): > 7 µM
- IC50 ([2]; IonWorks Quattro, […]): 4.8 µM
- IC50 ([3]; IonWorks Quattro, Table 9): 5.6 µM
- IC50 ([4]; IonWorks Quattro, Table 9): > 7 µM

Structure (SMILES): CC[C@H](C)[C@H](NC(=O)[C@@H](NC(=O)[C@H](CCCCN)NC(=O)[C@H](CCCNC(=N)N)NC(=O)[C@@H]1CSSC[C@@H]2NC(=O)[C@H](C)NC(=O)[C@H](CCCNC(=N)N)NC(=O)[C@H](CCCCN)NC(=O)[C@H](CO)NC(=O)[C@H](CC(=O)O)NC(=O)[C@@H]3CSSC[C@H](NC(=O)[C@H](CCCNC(=N)N)NC(=O)[C@H](CC(C)C)NC(=O)CNC(=O)[C@H](CCC(=O)O)NC(=O)[C@H](CSSC[C@H](NC(=O)[C@@H](N)CCCNC(=N)N)C(=O)N[C@@H](CCC(N)=O)C(=O)N[C@@H](CCCCN)C(=O)N[C@@H](Cc4c[nH]c5ccccc45)C(=O)N[C@@H](CCSC)C(=O)N[C@@H](Cc4c[nH]c5ccccc45)C(=O)N[C@@H]([C@@H](C)O)C(=O)N3)NC2=O)C(=O)N[C@@H](CCCCN)C(=O)N[C@@H](CC(C)C)C(=O)N[C@@H](Cc2c[nH]c3ccccc23)C(=O)N1)[C@@H](C)CC)C(N)=O [compound 90]
- IC50 ([1]; IonWorks Quattro, Table 6): 1.8 µM
- IC50 [2]: 0.005 µM
- IC50 ([3]; IonWorks Quattro, Table 6): 0.04 µM
- IC50 ([4]; IonWorks Quattro, Table 6): 0.12 µM
- Nav1.4/Nav1.7 ([4]; Table 6): 24

Structure (SMILES): CCCC[C@@H]1NC(=O)[C@H](Cc2c[nH]c3ccccc23)NC(=O)[C@H](CCCCN)NC(=O)[C@H](CCC(N)=O)NC(=O)[C@@H](NC(=O)[C@@H](N)Cc2ccc(O)cc2)CSSC[C@@H]2NC(=O)[C@@H]3CSSC[C@@H](C(=O)N[C@@H](CCCNC(=N)N)C(=O)N[C@@H](CCCCN)C(=O)N[C@H](C(=O)N[C@H](C(N)=O)[C@@H](C)CC)[C@@H](C)CC)NC(=O)[C@H](Cc4c[nH]c5ccccc45)NC(=O)[C@H](CC(C)C)NC(=O)[C@H](CCCCN)NC(=O)[C@H](CSSC[C@H](NC(=O)[C@H]([C@@H](C)O)NC(=O)[C@H](Cc4cn(CCCOCCOCCOCCOCCOCCOCCOCCOCCOCCOCCN)nn4)NC1=O)C(=O)N[C@@H](CC(=O)O)C(=O)N[C@@H](CO)C(=O)N[C@@H](CCCCN)C(=O)N[C@@H](CCCNC(=N)N)C(=O)N[C@@H](C)C(=O)N3)NC(=O)[C@H](CCCNC(=N)N)NC(=O)[C@H](CC(C)C)NC(=O)CNC(=O)[C@H](CCC(=O)O)NC2=O [compound 253]
- IC50 ([1]; IonWorks Quattro, Table 9): > 7 µM
- IC50 ([2]; IonWorks Quattro, […]): 4.6 µM
- IC50 ([3]; IonWorks Quattro, Table 9): > 7 µM
- IC50 ([4]; IonWorks Quattro, Table 9): > 7 µM

Structure (SMILES): CC[C@H](C)[C@H](NC(=O)[C@H](CCCCN)NC(=O)[C@H](CCCNC(=N)N)NC(=O)[C@@H]1CSSC[C@@H]2NC(=O)[C@H](C)NC(=O)[C@H](CCCNC(=N)N)NC(=O)[C@H](CCCCN)NC(=O)[C@H](CO)NC(=O)[C@H](CC(=O)O)NC(=O)[C@@H]3CSSC[C@H](NC(=O)[C@H](CCCNC(=N)N)NC(=O)[C@H](CC(C)C)NC(=O)CNC(=O)[C@H](CCC(=O)O)NC(=O)[C@H](CSSC[C@H](NC(=O)[C@@H](N)Cc4ccc(O)cc4)C(=O)N[C@@H](CCC(N)=O)C(=O)N[C@@H](CCCCN)C(=O)N[C@@H](Cc4c[nH]c5ccccc45)C(=O)N[C@@H](CCSC)C(=O)N[C@@H](Cc4c[nH]c5ccccc45)C(=O)N[C@@H]([C@@H](C)O)C(=O)N3)NC2=O)C(=O)N[C@@H](CCCCN)C(=O)N[C@@H](CC(C)C)C(=O)N[C@@H](Cc2c[nH]c3ccccc23)C(=O)N1)C(=O)N[C@@H](CCCNC(=N)N)C(N)=O [compound 109]
- IC50 ([1]; IonWorks Quattro, Table 6): > 5 µM
- IC50 [2]: 0.067 µM
- IC50 ([3]; IonWorks Quattro, Table 6): 1.3 µM
- IC50 ([4]; IonWorks Quattro, Table 6): 1.1 µM
- Nav1.4/Nav1.7 ([4]; Table 6): 16

Structure (SMILES): CC[C@H](C)[C@H](NC(=O)[C@@H](NC(=O)[C@H](CCCCN)NC(=O)[C@H](CCCNC(=N)N)NC(=O)[C@@H]1CSSC[C@@H]2NC(=O)[C@H](C)NC(=O)[C@H](CCCNC(=N)N)NC(=O)[C@H](CCCCN)NC(=O)[C@H](CO)NC(=O)[C@H](CC(=O)O)NC(=O)[C@@H]3CSSC[C@H](NC(=O)[C@H](CCCCN)NC(=O)[C@H](CC(C)C)NC(=O)CNC(=O)[C@H](CCC(=O)O)NC(=O)[C@H](CSSC[C@H](NC(=O)[C@@H](N)Cc4ccc(O)cc4)C(=O)N[C@@H](CCC(N)=O)C(=O)N[C@@H](CCCCN)C(=O)N[C@@H](Cc4c[nH]c5ccccc45)C(=O)N[C@@H](CCSC)C(=O)N[C@@H](Cc4c[nH]c5ccccc45)C(=O)N[C@@H]([C@@H](C)O)C(=O)N3)NC2=O)C(=O)N[C@@H](CCCCN)C(=O)N[C@@H](CC(C)C)C(=O)N[C@@H](Cc2c[nH]c3ccccc23)C(=O)N1)[C@@H](C)CC)C(N)=O [compound 84]
- IC50 ([1]; IonWorks Quattro, Table 6): 3.4 µM
- IC50 [2]: 0.02 µM
- IC50 ([3]; IonWorks Quattro, Table 6): 0.06 µM
- IC50 ([4]; IonWorks Quattro, Table 6): 0.26 µM
- Nav1.4/Nav1.7 ([4]; Table 6): 13
